Patent US20150307938A1, “METHOD TO IDENTIFY A NOVEL CLASS OF IMMUNOLOGIC ADJUVANTS” (Lancell, L.L.C., priority 2011, published 2015)
“Also recorded” adds a separate entry of the source.

Columns and labels:
OVA [1] = test: Antibody response to endotoxin-free OVA injected intradermally followed by topical DBP; type: in vivo, B6 mice; conditions: endotoxin-free OVA i.d. followed by topical DBP
Excerpt: (§1) The cutaneous lymphoid stress response bears a strong resemblance to the effects of topical DBP. DBP is required for the induction of contact hypersensitivity to FITC in mice, a form of allergic response. Topical DBP induces the migration of Langerhans cells from the epidermis to draining lymph nodes. And, topical DBP acts as an adjuvant for antigens injected into the skin, including endotoxin-free OVA. One might expect, therefore, that topical DBP would cause the same effects as tape stripping or occlusive skin patch immunization. To our surprise, none of the effects that characterize the DETC-dependent cutaneous lymphoid stress-surveillance response are found in the response to DBP.

skin dendritic cells = test: Flow cytometric analysis of Ahr−/− response to topical DBP
ear skin = test: Cutaneous lymphoid stress response gene expression after topical DBP on ear skin; type: in vivo; conditions: ear skin of C57B1/6 mice
Excerpt: as §1

[2] = system: Murine Skin Dendritic Cells; test: Activation of murine skin dendritic cells by DBP vs. DBlT (DC per lymph node, CD86); type: in vivo; conditions: topical treatment
skin = test: Skin histology after multiple topical applications of DBP; conditions: multiple topical doses
OVA [3] = test: Immune response to intradermal peptide (SIINFEKL) or protein (OVA) antigen, also alum-adsorbed OVA, with topical DBP; type: in vivo, mice
Excerpt: Topical DBP induced a 16-fold increase in the IgG1 Ab response to OVA adsorbed to alum and increased the IgG2c response 26-fold.

Fluzone = system: Fluzone; set-up: species or system C57BL/6 mice; conditions: mouse, in vivo

## CCCCOC(=O)c1ccccc1C(=O)OCCCC [DBP, dibutylphthalate]
OVA [1]
  antigen-specific IgE: undetectable
  antigen-specific IgG1 antibodies: significantly elevated
  antigen-specific IgG2b antibodies: significantly elevated
  antigen-specific IgG2c antibodies: significantly elevated
Skin dendritic cells; Ahr−/− mice
  E/C: 6.375
Skin dendritic cells; B6 mice
  E/C: 5.97
Skin dendritic cells; topical application
  skin dendritic cell response in AhR−/− mice: no evidence for any impairment
Ear skin
  expression of H60a: no statistically significant increase
  expression of Il-13: no statistically significant increase
  expression of Il-25: no statistically significant increase
  expression of KLrk1 (encodes NKG2D): no statistically significant increase
  expression of Rae-1: no statistically significant increase; also recorded: actually diminished
[2]
  MFI CD86: 618 (95)
skin
  histologic evidence of inflammation in the skin: no histologic evidence of inflammation
OVA [3]; DBP on skin of mice injected intradermally with adjuvant-free SIINFEKL or OVA
  T cell and antibody responses: dramatic increase
OVA [3]; high dose of alum-adsorbed OVA plus topical DBP, 60% succumbed without DBP
  survival of anaphylaxis: all of the mice survived
OVA [3]; topical DBP
  increase in the IgG1 Ab response to OVA adsorbed to alum: 16 fold
  increase in the IgG2c response to OVA adsorbed to alum: 26 fold
Fluzone
  HAI titer / adjuvant effect with the same dose of Fluzone: majorly improved
